Assay results as given in the CheMixHub viscosity set.

Experiment: xn = mol fraction of the nth substance listed

CCCCCCCCCCCCCC + CCCCCCC
101 kPa, x2 = 0.5
Settings | viscosity [mPa·s]
298 K | 1.031
318 K | 0.7754

ClC(Cl)=C(Cl)Cl + CCCCCCC
303.15 K, 101 kPa
Settings | viscosity [mPa·s]
x1 = 0.196 | 0.442
x1 = 0.3642 | 0.497
x1 = 0.4421 | 0.529
x1 = 0.4713 | 0.543
x1 = 0.5272 | 0.568
x1 = 0.6106 | 0.61
x1 = 0.6939 | 0.653
x1 = 0.7237 | 0.668
x1 = 0.8091 | 0.714
x1 = 0.9254 | 0.775

O=[N+]([O-])c1ccccc1 + CCCCCCC
101.3 kPa
Settings | viscosity [mPa·s]
293.15 K, x1 = 0.149 | 0.482
293.15 K, x1 = 0.2214 | 0.532
293.15 K, x1 = 0.2746 | 0.58
293.15 K, x1 = 0.3291 | 0.631
293.15 K, x1 = 0.4214 | 0.759
293.15 K, x1 = 0.4477 | 0.805
293.15 K, x1 = 0.4729 | 0.845
293.15 K, x1 = 0.4886 | 0.862
293.15 K, x1 = 0.5628 | 0.937
293.15 K, x1 = 0.6392 | 1.016
293.15 K, x1 = 0.7954 | 1.313
293.15 K, x1 = 0.8751 | 1.517
293.16 K, x1 = 0.383 | 0.845
293.57 K, x1 = 0.383 | 0.831
294.17 K, x1 = 0.383 | 0.812
295.09 K, x1 = 0.383 | 0.794
295.15 K, x1 = 0.149 | 0.471
295.15 K, x1 = 0.2214 | 0.517
295.15 K, x1 = 0.2746 | 0.562
295.15 K, x1 = 0.3291 | 0.611
295.15 K, x1 = 0.4214 | 0.72
295.15 K, x1 = 0.4477 | 0.759
295.15 K, x1 = 0.4729 | 0.79
295.15 K, x1 = 0.4886 | 0.808
295.15 K, x1 = 0.5628 | 0.896
295.15 K, x1 = 0.6392 | 0.984
295.15 K, x1 = 0.7954 | 1.274
295.15 K, x1 = 0.8751 | 1.475
296.42 K, x1 = 0.383 | 0.768
298.66 K, x1 = 0.383 | 0.736
299.15 K, x1 = 0.149 | 0.451
299.15 K, x1 = 0.2214 | 0.498
299.15 K, x1 = 0.2746 | 0.539
299.15 K, x1 = 0.3291 | 0.579
299.15 K, x1 = 0.4214 | 0.67
299.15 K, x1 = 0.4477 | 0.702
299.15 K, x1 = 0.4729 | 0.73
299.15 K, x1 = 0.4886 | 0.746
299.15 K, x1 = 0.5628 | 0.836
299.15 K, x1 = 0.6392 | 0.926
299.15 K, x1 = 0.7954 | 1.201
299.15 K, x1 = 0.8751 | 1.385
305.15 K, x1 = 0.149 | 0.423
305.15 K, x1 = 0.2214 | 0.463
305.15 K, x1 = 0.2746 | 0.503
305.15 K, x1 = 0.3291 | 0.536
305.15 K, x1 = 0.4214 | 0.615
305.15 K, x1 = 0.4477 | 0.643
305.15 K, x1 = 0.4729 | 0.678
305.15 K, x1 = 0.4886 | 0.681
305.15 K, x1 = 0.5628 | 0.764
305.15 K, x1 = 0.6392 | 0.85
305.15 K, x1 = 0.7954 | 1.104
305.15 K, x1 = 0.8751 | 1.26
313.15 K, x1 = 0.149 | 0.391
313.15 K, x1 = 0.2214 | 0.425
313.15 K, x1 = 0.2746 | 0.459
313.15 K, x1 = 0.3291 | 0.491
313.15 K, x1 = 0.4214 | 0.558
313.15 K, x1 = 0.4477 | 0.58
313.15 K, x1 = 0.4729 | 0.602
313.15 K, x1 = 0.4886 | 0.613
313.15 K, x1 = 0.5628 | 0.689
313.15 K, x1 = 0.6392 | 0.77
313.15 K, x1 = 0.7954 | 0.984
313.15 K, x1 = 0.8751 | 1.124

c1ccccc1 + CCCCCCC
Settings | viscosity [mPa·s]
294.15 K, 101 kPa, x1 = 0.6 | 0.4728
295.15 K, 101 kPa, x1 = 0.3 | 0.427
298 K, 101 kPa, x1 = 0.5 | 0.4167
298 K, 101.33 kPa, x1 = 0.1007 | 0.3923
298 K, 101.33 kPa, x1 = 0.1109 | 0.3913
298 K, 101.33 kPa, x1 = 0.1922 | 0.4003
298 K, 101.33 kPa, x1 = 0.276 | 0.4019
298 K, 101.33 kPa, x1 = 0.2915 | 0.4023
298 K, 101.33 kPa, x1 = 0.3953 | 0.4142
298 K, 101.33 kPa, x1 = 0.4839 | 0.4157
298 K, 101.33 kPa, x1 = 0.5204 | 0.4382
298 K, 101.33 kPa, x1 = 0.6729 | 0.4487
298 K, 101.33 kPa, x1 = 0.6893 | 0.5006
298 K, 101.33 kPa, x1 = 0.6967 | 0.4544
298 K, 101.33 kPa, x1 = 0.8532 | 0.5208
298 K, 101.33 kPa, x1 = 0.9152 | 0.5442
298.15 K, 101 kPa, x2 = 0.1025 | 0.53
298.15 K, 101 kPa, x2 = 0.2002 | 0.491
298.15 K, 101 kPa, x2 = 0.2919 | 0.46
298.15 K, 101 kPa, x2 = 0.4003 | 0.429
298.15 K, 101 kPa, x2 = 0.5192 | 0.41
298.15 K, 101 kPa, x2 = 0.6209 | 0.401
298.15 K, 101 kPa, x2 = 0.7084 | 0.392
298.15 K, 101 kPa, x2 = 0.7893 | 0.388
298.15 K, 101 kPa, x2 = 0.9165 | 0.386
298.15 K, 101.33 kPa, x2 = 0.095 | 0.532
298.15 K, 101.33 kPa, x2 = 0.1973 | 0.485
298.15 K, 101.33 kPa, x2 = 0.2999 | 0.455
298.15 K, 101.33 kPa, x2 = 0.3741 | 0.439
298.15 K, 101.33 kPa, x2 = 0.3984 | 0.431
298.15 K, 101.33 kPa, x2 = 0.4961 | 0.414
298.15 K, 101.33 kPa, x2 = 0.5995 | 0.403
298.15 K, 101.33 kPa, x2 = 0.6762 | 0.397
298.15 K, 101.33 kPa, x2 = 0.7309 | 0.395
298.15 K, 101.33 kPa, x2 = 0.7987 | 0.391
298.15 K, 101.33 kPa, x2 = 0.8933 | 0.389
308.15 K, 101 kPa, x2 = 0.1025 | 0.47
308.15 K, 101 kPa, x2 = 0.2002 | 0.44
308.15 K, 101 kPa, x2 = 0.2919 | 0.412
308.15 K, 101 kPa, x2 = 0.4003 | 0.388
308.15 K, 101 kPa, x2 = 0.5192 | 0.37
308.15 K, 101 kPa, x2 = 0.6209 | 0.36
308.15 K, 101 kPa, x2 = 0.7084 | 0.355
308.15 K, 101 kPa, x2 = 0.7893 | 0.351
308.15 K, 101 kPa, x2 = 0.9165 | 0.349
318 K, 101 kPa, x1 = 0.5 | 0.3407
318.15 K, 101 kPa, x2 = 0.1025 | 0.42
318.15 K, 101 kPa, x2 = 0.2002 | 0.396
318.15 K, 101 kPa, x2 = 0.2919 | 0.371
318.15 K, 101 kPa, x2 = 0.4003 | 0.352
318.15 K, 101 kPa, x2 = 0.5192 | 0.338
318.15 K, 101 kPa, x2 = 0.6209 | 0.33
318.15 K, 101 kPa, x2 = 0.7084 | 0.325
318.15 K, 101 kPa, x2 = 0.7893 | 0.319
318.15 K, 101 kPa, x2 = 0.9165 | 0.318
323.15 K, 101 kPa, x1 = 0.6 | 0.342

CCCCCCCCCCCCCC + CCCCCCCC
viscosity [mPa·s]
Settings | x1 = 0.1504 | x1 = 0.3504 | x1 = 0.4999 | x1 = 0.6485 | x1 = 0.8475 | x2 = 0.367 | x2 = 0.635 | x2 = 0.839
293.15 K, 101.33 kPa | – | – | – | – | – | 1.501 | 1.003 | 0.753
303.16 K, 101.3 kPa | 0.6303 | 0.8589 | 1.056 | 1.276 | 1.612 | – | – | –
308.16 K, 101.3 kPa | 0.5925 | 0.8026 | 0.9789 | 1.176 | 1.476 | – | – | –

CCCCCO + CCCCCCCC
viscosity [mPa·s], 101 kPa
Settings | 298.15 K | 318.15 K
x1 = 0.0618 | 0.537 | 0.426
x1 = 0.1297 | 0.57 | 0.449
x1 = 0.2063 | 0.617 | 0.484
x1 = 0.2744 | 0.671 | 0.517
x1 = 0.3509 | 0.749 | 0.57
x1 = 0.5159 | 1.007 | 0.72
x1 = 0.5831 | 1.166 | 0.813
x1 = 0.6979 | 1.536 | 1.025
x1 = 0.8127 | 2.072 | 1.298
x1 = 0.9043 | 2.694 | 1.611
x1 = 0.952 | 3.056 | 1.814

CC12CC3CC(C)(C1)CC(C)(C3)C2 + CCCCCCCCC
viscosity [mPa·s], 100 kPa
Settings | x1 = 0.1012 | x1 = 0.2132 | x1 = 0.3009 | x1 = 0.3978 | x1 = 0.4998 | x1 = 0.6007 | x1 = 0.6969 | x1 = 0.7984 | x1 = 0.8985
293.15 K | 0.831 | 0.936 | 1.021 | 1.11 | 1.231 | 1.395 | 1.593 | 1.852 | 2.201
298.15 K | 0.775 | 0.87 | 0.95 | 1.028 | 1.135 | 1.282 | 1.458 | 1.685 | 1.995
303.15 K | 0.726 | 0.812 | 0.883 | 0.952 | 1.052 | 1.183 | 1.342 | 1.544 | 1.818
308.15 K | 0.682 | 0.76 | 0.825 | 0.889 | 0.978 | 1.095 | 1.238 | 1.418 | 1.662
313.15 K | 0.639 | 0.711 | 0.771 | 0.831 | 0.914 | 1.022 | 1.147 | 1.309 | 1.526
318.15 K | 0.603 | 0.67 | 0.724 | 0.781 | 0.859 | 0.954 | 1.067 | 1.212 | 1.408
323.15 K | 0.569 | 0.633 | 0.681 | 0.737 | 0.807 | 0.894 | 0.996 | 1.13 | 1.304
